Data published in patent publication US11207310B2 (PRILENIA NEUROTHERAPEUTICS LTD., priority 2016, dated 2021).
Where two headings read alike, the source gives them in different places.

How the values were obtained:
patients with HD [1] = settings: for TFC Care Level, Δ to placebo: 52 weeks, Early Stage HD (TFC≥7); for Change from baseline in UHDRS TFC Care Level, Δ to placebo: Week 52
Text: The TFC scale of the UHDRS is a standardized scale used to assess 5 functional domains associated with disability shown below (occupation, finances, domestic chores (e.g. laundry, washing dishes), activities of daily living, and care level). The TFC score has a range of 0-13 and is a well-established endpoint for trials aiming disease progression. […] The TFC score is accepted by regulators and often considered the most widely accepted tool for disease procession in HD patients. Additionally, TFC is considered the gold standard for measuring HD rate of functional decline. […] The floor and ceiling effects make TFC scores more sensitive to change in early stage HD than in late stage HD.
Care level: 0=fill time skill nursing, 1=home or chronic care, 2=home.

patients with HD [2] = system: patients with HD
Protocol: The CAB may be used to detect symptomatic, “pro-cognitive” effects (6 months-1 year) and slowing rate of cognitive decline (>1 year). […] The CAB covers domains most impacted in HD, using tests with good psychometric properties. The following six sections describe the tests that are part of the CAB brief. • 1. Symbol Digit Modalities Test
Psychomotor function is assessed in a Paced Tapping test (also known as PTAP). Participants tap on left and right mouse buttons, alternating between thumbs, at 3.0 Hz. They first listen to a tone presented at the desired tapping rate, and then begin tapping to the tone. After 11 taps with the tone, the repetition of the tone is discontinued, and participants attempt to continue tapping at the same rate until the end of the trial (31 taps later). • 6. One Touch Stockings of Cambridge (OTS)

patients with HD [3] = system: patients with HD; remark: listed apart in the source
Protocol: The PBA-s is a brief semi-structured interview covering the most common behavioral and psychiatric manifestations of HD. […] Severity and frequency scores are multiplied to produce an overall ‘PBA score’ for each symptom.
The PBA-s is a brief semi-structured interview covering the most common behavioral and psychiatric manifestations of HD.
The total PBA score is calculated by the sum of all PBA-s scores across symptoms/domains.

patients with HD [4] = settings: OPEN-HART; for mean change from baseline in TFC: open-label pridopidine 90 mg/day, mean (SD)
Text: Patients with HD experience motor, cognitive and behavioral symptoms that lead to serious, long-term disability. TFC (range 0-13, high scores indicate greater capacity) evaluates patients' capacity to work, handle finances and domestic chores, perform activities of daily living and live independently, and is most sensitive to early changes in disability. TFC was utilized in OPEN-HART and the Coenzyme Q10 studies, CARE-HD and 2CARE.
For this analysis, TFC scores at baseline, 12, 24, and 36 months from OPEN-HART and 2CARE, and TFC scores at baseline, 12, 25, and 30 months from CARE were utilized.

patients with HD [5] = system: patients with HD; remark: listed apart in the source
Protocol: The study also compared data from all patients to those obtained in HD subpopulations.
The primary efficacy variable and endpoint for this study was change from baseline in the UHDRS TMS (defined as the sum of all UHDRS motor domains ratings) at Week 26 or Week 52. The primary measure of motor impairment is the UHDRS motor assessment section, which was administered by a trained examiner. The first part of the motor assessment consisted of five TMS subscores, provided below. The sum total of all the 31 items is referred to as the Total Motor Score (TMS). The secondary efficacy variable and endpoint was change from baseline in the mPPT at Week 26 or Week 52.
It is a research tool which has been developed to provide a uniform assessment of the clinical features and course of HD. The TMS component of UHDRS comprises 31 assessments from the 15 items of the UHDRS, with each assessment rated on a 5-point scale from 0 (normal) to 4 (maximally abnormal).
The change from baseline in UHDRS-TMS was analyzed using a Repeated Measures model (SAS® MIXED procedure with REPEATED sub-command). The model includes the following fixed effects: categorical week in study by treatment interaction, center, neuroleptic use or no use, and baseline UHDRS-TMS score. The unstructured covariance matrix for repeated observations within patients was used.

CCCN1CCC(c2cccc(S(C)(=O)=O)c2)CC1 [pridopidine, 4-[3-(methylsulfonyl)phenyl]-1-propyl-piperidine]
TFC Care Level, Δ to placebo (patients with HD [1]; 45 mg bid): 0.12
Change from baseline in UHDRS TFC Care Level, Δ to placebo (patients with HD [1]; 45 mg bid, ALL): 0.09
Change from baseline in UHDRS TFC Care Level, Δ to placebo (patients with HD [1]; 45 mg bid, Stage 2 BL TFC 7-10): 0.13
TFC Care Level, Δ to placebo (patients with HD [1]; 67.5 mg bid): 0.09
Change from baseline in UHDRS TFC Care Level, Δ to placebo (patients with HD [1]; 67.5 mg bid, ALL): 0
Change from baseline in UHDRS TFC Care Level, Δ to placebo (patients with HD [1]; 67.5 mg bid, Stage 2 BL TFC 7-10): 0.12
TFC Care Level, Δ to placebo (patients with HD [1]; 90 mg bid): 0.08
Change from baseline in UHDRS TFC Care Level, Δ to placebo (patients with HD [1]; 90 mg bid, ALL): −0.08
Change from baseline in UHDRS TFC Care Level, Δ to placebo (patients with HD [1]; 90 mg bid, Stage 2 BL TFC 7-10): 0.1
TFC Care Level, Δ to placebo (patients with HD [1]; 112.5 mg bid): 0.04
Change from baseline in UHDRS TFC Care Level, Δ to placebo (patients with HD [1]; 112.5 mg bid, ALL): −0.03
Change from baseline in UHDRS TFC Care Level, Δ to placebo (patients with HD [1]; 112.5 mg bid, Stage 2 BL TFC 7-10): 0.03
Paced Tapping at 3 Hz, change from baseline (patients with HD [2]; 45 mg bid, full analysis set, week 52): Positive findings indicating potential improvement from baseline
Δ to placebo: CAB Paced Tapping at 3 Hz, change from baseline (patients with HD [2]; 45 mg bid, week 26): 0.4736
Δ to placebo: CAB Paced Tapping at 3 Hz, change from baseline (patients with HD [2]; 45 mg bid, week 52): 1.3234
Δ to placebo: CAB Paced Tapping at 3 Hz, change from baseline (patients with HD [2]; 67.5 mg bid, week 26): −0.041
Δ to placebo: CAB Paced Tapping at 3 Hz, change from baseline (patients with HD [2]; 67.5 mg bid, week 52): 0.3701
Δ to placebo: CAB Paced Tapping at 3 Hz, change from baseline (patients with HD [2]; 90 mg bid, week 26): 0.1975
Δ to placebo: CAB Paced Tapping at 3 Hz, change from baseline (patients with HD [2]; 90 mg bid, week 52): 0.2659
Δ to placebo: CAB Paced Tapping at 3 Hz, change from baseline (patients with HD [2]; 112.5 mg bid, week 26): 0.9515
Δ to placebo: CAB Paced Tapping at 3 Hz, change from baseline (patients with HD [2]; 112.5 mg bid, week 52): 0.1523
PBA Lack of Initiative (Apathy), Severity×Frequency, change from baseline, Δ to placebo (patients with HD [3]; 45 mg bid, Week 26, ALL, p value 0.1235): −0.87
PBA Lack of Initiative (Apathy), Severity×Frequency, change from baseline, Δ to placebo (patients with HD [3]; 45 mg bid, Week 26, Stage 1 BL TFC 11-13, p value 0.0703): −1.85
Problems Behavioral Assessment apathy sub-score compared with placebo (patients with HD [3]; 45 mg bid, early HD patients, week 52): improved
PBA Lack of Initiative (Apathy), Severity×Frequency, change from baseline, Δ to placebo (patients with HD [3]; 67.5 mg bid (printed head, heads shifted), Week 52, BL TFC>7, p value 0.0608): −1.39
PBA Lack of Initiative (Apathy), Severity×Frequency, change from baseline, Δ to placebo (patients with HD [3]; 67.5 mg bid (printed head, heads shifted), Week 52, Full analysis set, p value 0.0704): −1.27
PBA Lack of Initiative (Apathy), Severity×Frequency, change from baseline, Δ to placebo (patients with HD [3]; 67.5 mg bid, Week 26, ALL, p value 0.3437): −0.53
PBA Lack of Initiative (Apathy), Severity×Frequency, change from baseline, Δ to placebo (patients with HD [3]; 67.5 mg bid, Week 26, Stage 1 BL TFC 11-13, p value 0.1267): −1.51
PBA Lack of Initiative (Apathy), Severity×Frequency, change from baseline, Δ to placebo (patients with HD [3]; 90 mg bid (printed head, heads shifted), Week 52, BL TFC>7, p value 0.703): −0.29
PBA Lack of Initiative (Apathy), Severity×Frequency, change from baseline, Δ to placebo (patients with HD [3]; 90 mg bid (printed head, heads shifted), Week 52, Full analysis set, p value 0.7052): 0.26
PBA Lack of Initiative (Apathy), Severity×Frequency, change from baseline, Δ to placebo (patients with HD [3]; 90 mg bid, Week 26, ALL, p value 0.7198): −0.2
PBA Lack of Initiative (Apathy), Severity×Frequency, change from baseline, Δ to placebo (patients with HD [3]; 90 mg bid, Week 26, Stage 1 BL TFC 11-13, p value 0.1822): −1.46
PBA Lack of Initiative (Apathy), Severity×Frequency, change from baseline, Δ to placebo (patients with HD [3]; 112.5 mg bid (printed head, heads shifted), Week 52, BL TFC>7, p value 0.9734): −0.02
PBA Lack of Initiative (Apathy), Severity×Frequency, change from baseline, Δ to placebo (patients with HD [3]; 112.5 mg bid (printed head, heads shifted), Week 52, Full analysis set, p value 0.8599): −0.12
PBA Lack of Initiative (Apathy), Severity×Frequency, change from baseline, Δ to placebo (patients with HD [3]; 112.5 mg bid, Week 26, ALL, p value 0.6445): −0.26
PBA Lack of Initiative (Apathy), Severity×Frequency, change from baseline, Δ to placebo (patients with HD [3]; 112.5 mg bid, Week 26, Stage 1 BL TFC 11-13, p value 0.0089): −2.62
PBA Lack of Initiative (Apathy), Severity×Frequency, change from baseline, Δ to placebo (patients with HD [3]; Placebo (printed head, heads shifted), Week 52, BL TFC>7, p value 0.7346): 0.26
PBA Lack of Initiative (Apathy), Severity×Frequency, change from baseline, Δ to placebo (patients with HD [3]; Placebo (printed head, heads shifted), Week 52, Full analysis set, p value 0.9523): −0.04
mean change from baseline in TFC (patients with HD [4]; 12 months): −0.49 (1.60)
mean change from baseline in TFC (patients with HD [4]; 24 months): −1.00 (1.92)
mean change from baseline in TFC (patients with HD [4]; 36 months): −1.68 (2.22)
TFC decline over time versus placebo in CARE-HD and 2CARE (patients with HD [4]; pridopidine 90 mg/day): slower
difference in the rate of functional decline (TFC) versus placebo arms of CARE-HD and 2CARE (patients with HD [4]; 12 months, non-matched cohorts): ~1 point
TMS change from baseline versus historical placebo in HART and MermaiHD (patients with HD [5]; 45 mg bid (FIG. 5a)): significant
Change from baseline in TMS plotted over time (patients with HD [5]; 45 mg bid, HD1 patients, after 52 weeks (FIG. 45b)): shows improvement in TMS score
Change from baseline in UHDRS TMS, Δ to placebo (patients with HD [5]; 45 mg bid, Week 26, ALL): 1.42
Change from baseline in UHDRS TMS, Δ to placebo (patients with HD [5]; 45 mg bid, Week 26, Stage 1 BL TFC 11-13): −4.47
Change from baseline in UHDRS TMS, Δ to placebo (patients with HD [5]; 45 mg bid, Week 52, ALL): 0.59
Change from baseline in UHDRS TMS, Wk52 Δ to placebo (patients with HD [5]; 45 mg bid, Week 52, Stage 1 BL TFC 11-13): −5.32
Change from baseline in UHDRS TMS, Δ to placebo (patients with HD [5]; 67.5 mg bid, Week 26, ALL): 1.71
Change from baseline in UHDRS TMS, Δ to placebo (patients with HD [5]; 67.5 mg bid, Week 26, Stage 1 BL TFC 11-13): −3
Change from baseline in UHDRS TMS, Δ to placebo (patients with HD [5]; 67.5 mg bid, Week 52, ALL): 2.55
Change from baseline in UHDRS TMS, Wk52 Δ to placebo (patients with HD [5]; 67.5 mg bid, Week 52, Stage 1 BL TFC 11-13): −0.84
TMS change from baseline versus historical placebo in HART and MermaiHD (patients with HD [5]; 90 mg bid (FIG. 5a)): significant
Change from baseline in UHDRS TMS, Δ to placebo (patients with HD [5]; 90 mg bid, Week 26, ALL): 0.67
UHDRS TMS score at week 26 compared to baseline (patients with HD [5]; 90 mg bid, Week 26, BL TFC 11-13 (HD1), read from FIG. 8b): about −8
Change from baseline in UHDRS TMS, Δ to placebo (patients with HD [5]; 90 mg bid, Week 26, Stage 1 BL TFC 11-13): −6.15
Change from baseline in UHDRS TMS, Δ to placebo (patients with HD [5]; 90 mg bid, Week 52, ALL): 1.78
Change from baseline in UHDRS TMS, Wk52 Δ to placebo (patients with HD [5]; 90 mg bid, Week 52, Stage 1 BL TFC 11-13): −7.1
Total Motor Score (TMS) Change from Baseline (patients with HD [5]; 90 mg bid, weeks 4-26 (FIG. 3)): largest treatment effect
Change from baseline in UHDRS TMS, Δ to placebo (patients with HD [5]; 112.5 mg bid, Week 26, ALL): 2.1
Change from baseline in UHDRS TMS, Δ to placebo (patients with HD [5]; 112.5 mg bid, Week 26, Stage 1 BL TFC 11-13): −4.79
Change from baseline in UHDRS TMS, Δ to placebo (patients with HD [5]; 112.5 mg bid, Week 52, ALL): 2.71
Change from baseline in UHDRS TMS, Wk52 Δ to placebo (patients with HD [5]; 112.5 mg bid, Week 52, Stage 1 BL TFC 11-13): −0.92
primary endpoint: change in TMS from baseline to week 26 compared with placebo (patients with HD [5]; PRIDE-HD, 45 mg to 112.5 mg bid): did not meet the primary endpoint
TMS in the PRIDE-HD study (patients with HD [5]; all doses, week 26): showed improvement at all doses at week 26, but did not reach statistical significance
